PubChem BioAssay (NCI)
“And” between values parts separate entries of the source, which are not always exact repeats. Equal values may be shown once.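 Method: 48-hour compound exposure of cells in 96-well plates, five concentrations, linear interpolation of endpoints. At the TGI there is no net growth.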

Tests used:
Assay in all cases: growth of human tumour cells (NCI), 48 h
786-0 renal = tested on: 786-0 renal
A549 NSCLC = tested on: A549 NSCLC
COLO 205 colon = tested on: COLO 205 colon
HCT-15 colon = tested on: HCT-15 colon
IGROV1 ovarian = tested on: IGROV1 ovarian
NCI-H23 lung = tested on: NCI-H23 lung
NCI-H522 lung = tested on: NCI-H522 lung
OVCAR-3 ovarian = tested on: OVCAR-3 ovarian
SF-268 CNS = tested on: SF-268 CNS
SN12C renal = tested on: SN12C renal
UO-31 renal = tested on: UO-31 renal

SMILES	TGI (786-0 renal)	TGI (A549 NSCLC)	TGI (COLO 205 colon)	TGI (HCT-15 colon)	TGI (IGROV1 ovarian)	TGI (NCI-H23 lung)	TGI (NCI-H522 lung)	TGI (OVCAR-3 ovarian)	TGI (SF-268 CNS)	TGI (SN12C renal)	TGI (UO-31 renal)
COc1nc(C)nc2c1ncn2Cc1ccccc1	> 100 µM	> 100 µM	> 100 µM	> 100 µM	> 100 µM	> 100 µM	> 100 µM	> 100 µM	> 100 µM	> 100 µM	–
C=CCC1C2CCC(O[Si](C(C)C)(C(C)C)C(C)C)(C(C(=O)OC)C2)C1O (stereo unspecified)	> 100 µM	> 100 µM	> 100 µM	> 100 µM	> 100 µM	> 100 µM	–	> 100 µM	> 100 µM	> 100 µM	> 100 µM
COc1cc2c(cc1OCCCCN1CCN(CCCCOc3cc4c(cc3OC)C(=O)N3CCC[C@H]3C=N4)CC1)N=C[C@@H]1CCCN1C2=O	41.1 µM	> 100 µM	0.0354 µM	–	–	0.0914 µM	1.49 µM	0.0636 µM	16.5 µM	1.1 µM	> 100 µM
CC(C)(CN)SCc1ccccc1	> 100 µM	> 100 µM	> 100 µM	> 100 µM	> 100 µM	–	> 100 µM	> 100 µM	> 100 µM	> 100 µM	> 100 µM
Cc1cn2c(/C=C3/C(=O)Nc4ccccc43)c(C)nc2s1	> 100 µM	50.7 µM	15.6 µM	> 100 µM	> 100 µM	> 100 µM	21.5 µM	–	78.1 µM	42.2 µM	61.4 µM
COC1C(OC(N)=O)C(O)C(Oc2ccc3c(O)c(NC(=O)c4ccc(O)c(CC=C(C)C)c4)c(=O)oc3c2C)OC1(C)C (stereo unspecified)	> 100 µM	> 100 µM	> 100 µM	> 100 µM	> 100 µM	–	–	> 100 µM	> 100 µM	> 100 µM	> 100 µM
Nc1nc(NCCOCP(=O)(O)O)c(N)c(=O)[nH]1	> 100 µM	> 100 µM	> 100 µM	> 100 µM	> 100 µM	> 100 µM	–	> 100 µM	> 100 µM	> 100 µM	> 100 µM
C(=N/NC1=NCCN1)/c1c2ccccc2c(/C=N\NC2=NCCN2)c2ccccc12	1.86 µM and 1.87 µM	0.258 µM and 1.37 µM and 1.12 µM	0.366 µM and 0.609 µM and 1.41 µM	214 µM	0.661 µM and 3.09 µM and 4.75 µM	0.647 µM and 1.4 µM and 1.03 µM	0.214 µM and 0.262 µM and 0.387 µM	0.561 µM and 0.449 µM and 1.75 µM	0.558 µM and 0.722 µM and 0.747 µM	0.545 µM and 1.72 µM and 1.94 µM	–
CCOC(=O)c1ccc(Nc2cnc3ccc(C(F)(F)F)cc3n2)cc1	26.8 µM	32.3 µM	29.3 µM	35.5 µM	30.4 µM	28.5 µM	–	44.8 µM	34 µM	27.2 µM	48.6 µM
Cc1ccc([N+](=O)[O-])c2c(NCCC[N+](C)(C)[O-])ccnc12	> 100 µM	> 100 µM	> 100 µM	–	67.3 µM	> 100 µM	32.6 µM	> 100 µM	> 100 µM	> 100 µM	> 100 µM
Cn1c(=O)sc2cc(C(=S)N3CCN(c4ccccc4)CC3)ccc21	> 100 µM	–	> 100 µM	> 100 µM	> 100 µM	> 100 µM	–	> 100 µM	> 100 µM	> 100 µM	–
